From patent US20240391959A1, “BICYCLIC PEPTIDE LIGANDS […] FOR TRANSFERRIN RECEPTOR 1 (TfR1)” (BicycleTx Limited, priority 2020, published 2024)
Several values for one entry are separate records, joined by “and”; a condition that tells them apart may be missing. Equal entries are not always repeated. Starred links: 1 amine or outer side, 2 acyl side, 3 side chain; linkers in the order of their positions; H or OH if unused. Positions of bridges follow the written chain, without caps; N, C: chain ends. Residues, ends and D or L forms follow the SMILES beside them. TATB = O=C(C[*:1])N1CN(C(=O)C[*:2])CN(C(=O)C[*:3])C1

How the values were obtained:
Format in all cases: binding
human TfR1 [1] = biological target: T1, human TfR1 (Homo sapiens, UniProt P02786); assay: biochemical; design: His6-tagged TfR1 (a.a. 89-760) (ACRO Biosystems, CD1-H5243 and TFR-C524a); His6; purchased R&D Systems or Acro Biosystems 2474-TR or CD1-H5243; conditions: Human TfR1 Kd (nM)
human TfR1 [2] = biological target: T1, human TfR1; assay: biochemical; design: His6-tagged TfR1 (a.a. 89-760) (ACRO Biosystems, CD1-H5243 and TFR-C524a); His6; purchased R&D Systems or Acro Biosystems 2474-TR or CD1-H5243
cynomolgus TfR1 = biological target: cynomolgus TfR1

T1 sequence (P02786 89-760): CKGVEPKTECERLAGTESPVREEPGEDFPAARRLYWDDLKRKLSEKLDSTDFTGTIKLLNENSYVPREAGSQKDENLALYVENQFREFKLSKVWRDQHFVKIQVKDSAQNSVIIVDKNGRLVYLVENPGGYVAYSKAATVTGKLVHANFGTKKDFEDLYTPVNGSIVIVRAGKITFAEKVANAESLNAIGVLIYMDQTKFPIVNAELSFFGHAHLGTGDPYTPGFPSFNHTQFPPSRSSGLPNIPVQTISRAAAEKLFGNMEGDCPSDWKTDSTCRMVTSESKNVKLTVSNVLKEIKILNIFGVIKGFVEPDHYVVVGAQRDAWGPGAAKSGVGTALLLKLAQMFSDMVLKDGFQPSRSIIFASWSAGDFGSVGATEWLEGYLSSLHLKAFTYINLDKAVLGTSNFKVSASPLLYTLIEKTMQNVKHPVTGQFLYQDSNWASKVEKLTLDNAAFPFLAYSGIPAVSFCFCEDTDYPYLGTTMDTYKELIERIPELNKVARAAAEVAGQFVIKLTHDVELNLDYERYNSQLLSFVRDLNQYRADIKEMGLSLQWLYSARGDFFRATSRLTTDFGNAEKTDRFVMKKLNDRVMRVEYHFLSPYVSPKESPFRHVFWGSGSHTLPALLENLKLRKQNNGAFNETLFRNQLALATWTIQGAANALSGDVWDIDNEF

SMILES | Kd (human TfR1 [1]) [nM] | Ki (human TfR1 [2]; Geomean Ki (μM)) [µM] | Ki (human TfR1 [2]; Human TfR1 Ki (nM)) [µM] | Kd (cynomolgus TfR1)
CC[C@H](C)[C@@H]1NC(=O)[C@@H]2CSCC(=O)N3CN(CN(C3)C(=O)CSC[C@H](NC(C)=O)C(=O)N[C@@H](CO)C(=O)N3CCC[C@H]3C(=O)N[C@@H](CC(=O)O)C(=O)N[C@@H](C)C(=O)N[C@@H](Cc3c[nH]cn3)C(=O)N[C@@H](CC(C)C)C(=O)NCC(=O)N2)C(=O)CSC[C@@H](C(N)=O)NC(=O)[C@H](Cc2ccc(O)cc2)NC(=O)[C@H](CO)NC1=O [BCY15891, Ac-(SEQ ID NO: 9)] (Ac-CSPDAHLGCISYC-NH2; linker 1-9-13 via TATB) | 46 | 0.067 | 0.094 | 3990 nM
CC[C@H](C)[C@@H]1NC(=O)[C@@H]2CSCC(=O)N3CN(CN(C3)C(=O)CSC[C@@H](C(=O)N[C@@H](C)C(N)=O)NC(=O)[C@H](Cc3cccc4ccccc34)NC(=O)[C@H](CO)NC1=O)C(=O)CSC[C@H](NC(=O)[C@H](C)N)C(=O)N[C@@H](CO)C(=O)N1CCC[C@H]1C(=O)N[C@@H](CC(=O)O)C(=O)N[C@@H](C)C(=O)N[C@@H](Cc1c[nH]cn1)C(=O)N[C@@H](CC(C)C)C(=O)NCC(=O)N2 [BCY16029, A-(SEQ ID NO: 39)-A] |  |  |  | 5480 nM
CC[C@H](C)[C@@H]1NC(=O)[C@@H]2CSCC(=O)N3CN(CN(C3)C(=O)CSC[C@@H](C(=O)N[C@@H](C)C(N)=O)NC(=O)[C@H](Cc3ccc(O)c(C(C)(C)C)c3)NC(=O)[C@H](CO)NC1=O)C(=O)CSC[C@H](NC(=O)[C@H](C)N)C(=O)N[C@@H](CO)C(=O)N1CCC[C@H]1C(=O)N[C@@H](CC(=O)O)C(=O)N[C@@H](C)C(=O)N[C@@H](Cc1c[nH]cn1)C(=O)N[C@@H](CC(C)C)C(=O)NCC(=O)N2 [BCY16079, A-(SEQ ID NO: 37)-A] | 60 |  |  | 5660 nM
CC(C)C[C@@H]1NC(=O)[C@H](Cc2ccc(O)cc2)NC(=O)[C@H](C)NC(=O)[C@H](CC(=O)O)NC(=O)[C@@H]2CCCN2C(=O)[C@@H]2CCCN2C(=O)[C@@H](NC(=O)[C@H](C)N)CSCC(=O)N2CN3CN(C2)C(=O)CSC[C@@H](C(=O)N[C@@H](C)C(N)=O)NC(=O)[C@H](Cc2ccc(O)cc2)NC(=O)[C@H](CO)NC(=O)[C@H](C(C)(C)C)NC(=O)[C@H](CSCC3=O)NC(=O)CNC1=O [BCY16964, A-(SEQ ID NO: 22)-A] |  |  |  | 514 nM
CC[C@H](C)[C@@H]1NC(=O)[C@@H]2CSCC(=O)N3CN(CN(C3)C(=O)CSC[C@H](NC(=O)[C@H](CC(N)=O)NC(=O)[C@H](Cc3c[nH]c4ccccc34)NC(=O)[C@@H](N)CC(N)=O)C(=O)N[C@@H](CO)C(=O)N3CCC[C@H]3C(=O)N[C@@H](CC(=O)O)C(=O)N[C@@H](C)C(=O)N[C@@H](Cc3c[nH]cn3)C(=O)N[C@@H](CC(C)C)C(=O)NCC(=O)N2)C(=O)CSC[C@@H](C(=O)N[C@@H](C)C(N)=O)NC(=O)[C@H](Cc2ccc(O)cc2)NC(=O)[C@H](CO)NC1=O [BCY17109, NWN-(SEQ ID NO: 9)-A] |  | 0.009 |  | 281 nM and 535 nM
CC[C@H](C)[C@@H]1NC(=O)[C@@H]2CSCC(=O)N3CN(CN(C3)C(=O)CSC[C@H](NC(=O)[C@@H](NC(=O)[C@H](CCC(=O)O)NC(=O)[C@@H](N)CC(N)=O)C(C)C)C(=O)N[C@@H](CO)C(=O)N3CCC[C@H]3C(=O)N[C@@H](CC(=O)O)C(=O)N[C@@H](C)C(=O)N[C@@H](Cc3c[nH]cn3)C(=O)N[C@@H](CC(C)C)C(=O)NCC(=O)N2)C(=O)CSC[C@@H](C(=O)N[C@@H](C)C(N)=O)NC(=O)[C@H](Cc2ccc(O)cc2)NC(=O)[C@H](CO)NC1=O [BCY17112, NEV-(SEQ ID NO: 9)-A] |  |  |  | 2600 nM
CC[C@H](C)[C@@H]1NC(=O)[C@@H]2CSCC(=O)N3CN(CN(C3)C(=O)CSC[C@@H](C(=O)N[C@@H](CCC(=O)O)C(=O)N3CCC[C@H]3C(=O)N[C@@H](Cc3c[nH]c4ccccc34)C(N)=O)NC(=O)[C@H](Cc3ccc(O)cc3)NC(=O)[C@H](CO)NC1=O)C(=O)CSC[C@H](NC(=O)[C@H](C)N)C(=O)N[C@@H](CO)C(=O)N1CCC[C@H]1C(=O)N[C@@H](CC(=O)O)C(=O)N[C@@H](C)C(=O)N[C@@H](Cc1c[nH]cn1)C(=O)N[C@@H](CC(C)C)C(=O)NCC(=O)N2 [BCY17114, A-(SEQ ID NO: 9)-EPW] |  |  |  | 845 nM
CC[C@H](C)[C@@H]1NC(=O)[C@@H]2CSCC(=O)N3CN(CN(C3)C(=O)CSC[C@@H](C(=O)N3CCC[C@H]3C(=O)N[C@H](C(=O)N[C@H](C(=O)N[C@@H](Cc3c[nH]cn3)C(N)=O)C(C)C)[C@@H](C)CC)NC(=O)[C@H](Cc3ccc(O)cc3)NC(=O)[C@H](CO)NC1=O)C(=O)CSC[C@H](NC(=O)[C@H](C)N)C(=O)N[C@@H](CO)C(=O)N1CCC[C@H]1C(=O)N[C@@H](CC(=O)O)C(=O)N[C@@H](C)C(=O)N[C@@H](Cc1c[nH]cn1)C(=O)N[C@@H](CC(C)C)C(=O)NCC(=O)N2 [BCY17120, A-(SEQ ID NO: 9)-PIVH] |  |  |  | 1260 nM
CC[C@H](C)[C@@H]1NC(=O)[C@@H]2CSCC(=O)N3CN(CN(C3)C(=O)CSC[C@H](NC(C)=O)C(=O)N[C@@H](C)C(=O)N3CCC[C@H]3C(=O)N[C@@H](CC(=O)O)C(=O)N[C@@H](C)C(=O)N[C@@H](Cc3c[nH]cn3)C(=O)N[C@@H](CC(C)C)C(=O)NCC(=O)N2)C(=O)CSC[C@@H](C(N)=O)NC(=O)[C@H](Cc2ccc(O)cc2)NC(=O)[C@H](CO)NC1=O [BCY17986, Ac-(SEQ ID NO: 24)] |  |  |  | 4660 nM
CC[C@H](C)[C@@H]1NC(=O)[C@@H]2CSCC(=O)N3CN(CN(C3)C(=O)CSC[C@H](NC(C)=O)C(=O)N[C@@H](CO)C(=O)N3CC[C@H]3C(=O)N[C@@H](CC(=O)O)C(=O)N[C@@H](C)C(=O)N[C@@H](Cc3c[nH]cn3)C(=O)N[C@@H](CC(C)C)C(=O)NCC(=O)N2)C(=O)CSC[C@@H](C(N)=O)NC(=O)[C@H](Cc2ccc(O)cc2)NC(=O)[C@H](CO)NC1=O [BCY17988, Ac-(SEQ ID NO: 44)] | 649 | 0.272 | 0.213 | 
CC[C@H](C)[C@@H]1NC(=O)[C@@H]2CSCC(=O)N3CN(CN(C3)C(=O)CSC[C@H](NC(=O)[C@H](CC(N)=O)NC(=O)[C@H](Cc3c[nH]c4ccccc34)NC(=O)[C@H](CC(N)=O)NC(C)=O)C(=O)N[C@@H](CO)C(=O)N3CCC[C@H]3C(=O)N[C@@H](CC(=O)O)C(=O)N[C@@H](C)C(=O)N[C@@H](Cc3c[nH]cn3)C(=O)N[C@@H](CC(C)C)C(=O)NCC(=O)N2)C(=O)CSC[C@@H](C(N)=O)NC(=O)[C@H](Cc2ccc(O)cc2)NC(=O)[C@H](CO)NC1=O [BCY17992, Ac-NWN-(SEQ ID NO: 9)] |  |  |  | 535 nM
CC[C@H](C)[C@@H]1NC(=O)[C@@H]2CSCC(=O)N3CN(CN(C3)C(=O)CSC[C@@H](C(=O)N[C@@H](CCC(=O)O)C(=O)N3CCC[C@H]3C(=O)N[C@@H](Cc3c[nH]c4ccccc34)C(N)=O)NC(=O)[C@H](Cc3ccc(O)cc3)NC(=O)[C@H](CO)NC1=O)C(=O)CSC[C@H](NC(C)=O)C(=O)N[C@@H](CO)C(=O)N1CCC[C@H]1C(=O)N[C@@H](CC(=O)O)C(=O)N[C@@H](C)C(=O)N[C@@H](Cc1c[nH]cn1)C(=O)N[C@@H](CC(C)C)C(=O)NCC(=O)N2 [BCY17994, Ac-(SEQ ID NO: 9)-EPW] |  | 0.008 | 0.008 | 688 nM
CC[C@H](C)[C@@H]1NC(=O)[C@@H]2CSCC(=O)N3CN(CN(C3)C(=O)CSC[C@H](NC(=O)[C@H](CC(N)=O)NC(=O)[C@H](Cc3cccc4ccccc34)NC(=O)[C@H](CC(N)=O)NC(C)=O)C(=O)N[C@@H](CO)C(=O)N3CCC[C@H]3C(=O)N[C@@H](CC(=O)O)C(=O)N[C@@H](C)C(=O)N[C@@H](Cc3c[nH]cn3)C(=O)N[C@@H](CC(C)C)C(=O)NCC(=O)N2)C(=O)CSC[C@@H](C(N)=O)NC(=O)[C@H](Cc2ccc(O)cc2)NC(=O)[C@H](CO)NC1=O [BCY18034, Ac-N[1Nal]N-(SEQ ID NO: 9)] |  |  | 0.01 | 2080 nM
CC[C@H](C)[C@@H]1NC(=O)[C@@H]2CSCC(=O)N3CN(CN(C3)C(=O)CSC[C@H](NC(=O)[C@H](CC(N)=O)NC(=O)[C@@H](Cc3c[nH]c4ccccc34)NC(=O)[C@H](CC(N)=O)NC(C)=O)C(=O)N[C@@H](CO)C(=O)N3CCC[C@H]3C(=O)N[C@@H](CC(=O)O)C(=O)N[C@@H](C)C(=O)N[C@@H](Cc3c[nH]cn3)C(=O)N[C@@H](CC(C)C)C(=O)NCC(=O)N2)C(=O)CSC[C@@H](C(N)=O)NC(=O)[C@H](Cc2ccc(O)cc2)NC(=O)[C@H](CO)NC1=O [BCY18035, Ac-N[dW]N-(SEQ ID NO: 9)] |  | 0.02 |  | 10300 nM
CC[C@H](C)[C@@H]1NC(=O)[C@@H]2CSCC(=O)N3CN(CN(C3)C(=O)CSC[C@@H](C(=O)N[C@@H](CCC(=O)O)C(=O)N3CC[C@H]3C(=O)N[C@@H](Cc3c[nH]c4ccccc34)C(N)=O)NC(=O)[C@H](Cc3ccc(O)cc3)NC(=O)[C@H](CO)NC1=O)C(=O)CSC[C@H](NC(C)=O)C(=O)N[C@@H](CO)C(=O)N1CCC[C@H]1C(=O)N[C@@H](CC(=O)O)C(=O)N[C@@H](C)C(=O)N[C@@H](Cc1c[nH]cn1)C(=O)N[C@@H](CC(C)C)C(=O)NCC(=O)N2 [BCY18037, Ac-(SEQ ID NO: 9)-E[Aze]W] |  |  |  | 1080 nM
CC[C@H](C)[C@@H]1NC(=O)[C@@H]2CSCC(=O)N3CN(CN(C3)C(=O)CSC[C@@H](C(=O)N[C@@H](CCC(=O)O)C(=O)N3CCC[C@@H]3C(=O)N[C@@H](Cc3c[nH]c4ccccc34)C(N)=O)NC(=O)[C@H](Cc3ccc(O)cc3)NC(=O)[C@H](CO)NC1=O)C(=O)CSC[C@H](NC(C)=O)C(=O)N[C@@H](CO)C(=O)N1CCC[C@H]1C(=O)N[C@@H](CC(=O)O)C(=O)N[C@@H](C)C(=O)N[C@@H](Cc1c[nH]cn1)C(=O)N[C@@H](CC(C)C)C(=O)NCC(=O)N2 [BCY18038, Ac-(SEQ ID NO: 9)-E[dP]W] |  |  |  | 1650 nM
